Measurements published in US4650804A, “Quinolizinone compounds and pharmaceutical composition comprising the same, useful as anti-ulcerative and anti-allergic agents” (Fujisawa Pharmaceutical Co., Ltd., priority 1984, dated 1987).
Where “and” joins values, the source holds several entries; their conditions need not be identical. Equal values may be shown once.

What was measured:
[1] = Inhibition on stress ulcer; type: in vivo, Sprague-Dawley rats; settings: 32 mg/kg, oral, 22° C. water bath, 7 hours; for Ulcer index Mean ± S. E. / Ulcer index (individual animals): just before immobilization; for Ulcer index Mean ± S. E.: 5 animals; for Ulcer index (individual animals): single animals No. 1-5; for Inh. %: ulcer index inhibition vs control
Procedure: (A) Inhibition on stress ulcer
Sprague-Dawley rats weighing about 200 g were used. Each animal was immobilized in a small cage and put in a water bath allowing to respire. The temperature of the water bath kept at 22° C. The test compound .circle.A and .circle.B were administered orally just before the immobilization. Seven hours later, the animals were sacrificed and their stomachs were removed. The stomach was then fixed with 2% formalin. The area of ulcers was measured for each animal. The mean area (mm^2) in the test animals was compared with that in the control animals.

[2] = Effect on passive cutaneous anaphylaxis (PCA); type: in vivo, female Sprague-Dawley rats; settings: intravenously with the antigen
Procedure: (B) Effect on passive cutaneous anaphylaxis (pCA).
Recipient animals for PCA reactions were female Sprague-Dawley rats, 7 weeks old, 180 g-200 g (Nihon Kurea). Each experiment included 5 observations.
Five times crystallized ovalbumin (OVA) (Sigma Lot, 31F-8061) was used as antigen.
Female BDFl mice, 7 weeks old (Nihon Kurea), were given a primary injection (left foot pad, s.c.) of 100 mcg OVA in 0.05 ml saline and after 20 days a booster injection by the same route. Blood was collected 28 days after the primary injection and the sera were stored at -80° C.
The animals were shared with an electric clipper in advance and prepared for Passive Cutaneous Anaphylaxis (PCA) by injecting 0.05 ml of mouse antiserum dilutions (1/16, 1/32) in each side of the dorsal skin.
They were then challenged 48 hours later with an intravenous injection of 1 ml of 0.5% Evans Blue containing 5 mg OVA. Fifty minutes later, they were killed and the lesions (diameter) measured.
A minimal skin response was one with a 5 mm or greater diameter blue spot measured on the dermal side of reflected skin. Drug activity was estimated using the following formula; [formula]
Drugs were suspended in 0.1% methyl cellulose/saline and given intravenously with the antigen.

| Compound | Ulcer index Mean ± S. E. [1] | Ulcer index (individual animals) [1] | Inh. % [1] | Inhibition (%) ([2]; 1 mg/kg, Antiserum concentration 1/16) | Inhibition (%) ([2]; 1 mg/kg, Antiserum concentration 1/32) | Inhibition (%) ([2]; 10 mg/kg, Antiserum concentration 1/16) | Inhibition (%) ([2]; 10 mg/kg, Antiserum concentration 1/32) |
| --- | --- | --- | --- | --- | --- | --- | --- |
| O=C(Nc1nn[nH]n1)c1cc(-c2ccccc2)c2ccccn2c1=O [Compound .circle.B, N-[5-(1H-Tetrazolyl)]-1-phenyl-4H-quinolizin-4-one-3-carboxamide] | 8.4 ± 1.9 mm^2 | 10 mm^2 and 11 mm^2 and 3 mm^2 and 5 mm^2 | 83.7% |  |  |  |  |
| O=C(Nc1nn[nH]n1)c1ccc2ccccn2c1=O [Compound .circle.A, N-[5-(1H-Tetrazolyl)]-4H-quinolizin-4-one-3-carboxamide] | 6.2 ± 3.0 mm^2 | 18 mm^2 and 5 mm^2 and 3 mm^2 and 4 mm^2 and 1 mm^2 | 67.7% | 97.2% | 100% | 94.5% | 100% |
